Structures can show the parent of a compound that is named as a salt. Where two headings read alike, the source gives them in different places.
Assays:
[1] = system: human concentrated red cells; experiment: Hemolysis of stored CRC, reagent added as Tween 80/physiological saline emulsion; plasma hemoglobin by TMB method; assay type: cell-based; details: for Hemoglobin concentration in plasma: Table 1, emulsion, 4°C, 4 weeks; for hemolysis depressing capacity (in words): summary of Tables 1 through 6 (emulsion and direct addition)
Method: Isopropyl isotridecyl maleate was added to a 2000ug/ml polyoxyethylene monooleate (reagent-grade product of Wako Junyaku K.K. marketed under trademark designation of "Tween 80")/physiological saline mixed solution in such an amount to be contained therein in a final concentration of 4mM. A 0.2ml aliquot of the resultant emulsion was added to a human concentrated red cells (hereinafter referred to as "CRC") adjusted in advance to a hematocrit value of about 70% so as to be contained therein in a final concentration indicated in Table 1. The resulting liquid was placed in a stoppered polypropylene tube and left standing at rest at 4°C for 4 weeks. At the end of this standing, it was tested for plasma hemoglobin concentration by the TMB method (Clin. Chem., 23, 749-(1977)).
An emulsion was prepared by following the procedure of Example 1, except that isopropyl decyl maleate was used in place of isopropyl-isotridecyl maleate. A CRC sample incorporating the emulsion was left standing and thereafter tested for plasma hemoglobin concentration.
Emulsions were prepared by following the procedure of Excample 1, except that di-2-ethylhexyl phthalate (Control 1) and diisopropyl maleate, a carboxylic ester compound deviating from the scope of the present invention (Control 2) were respectively used in place of isopropyl isotridecyl maleate. CRC samples severally incorporating the emulsions were left standing and, thereafter, tested for plasma hemoglobin concentration.
Glycerine-l-butyl-3-isostearyl ether was added to a 2000 ug/ml polyoxyethylene monooleate (regent-grade product of Wako Junyaku K.K. marketed under trademark designation of "Tween 80")/ physiological saline mixed solution so as to be contained therein in a final concentration of 4 mM. A 0.2ml aliquot of the resultant emulsion was added to CRC adjusted in advance to a hematocrit value of about 70% so as to be contained therein in a final concentration indicated in Table 3. The resultant liquid was placed in a stoppered polypropylene tube and left standing at 4°C for 4 weeks. Thereafter, it was tested for plasma hemoglobin concentration by following the procedure of Example 1.
An emulsion was prepared by following the procedure of Example 5, except that glycerine-1,3-dioctyl ether was used in place of glycerine- l-butyl-3-isostearyl ether. A CRC sample incorporating the resultant emulsion was left standing and, thereafter, tested for plasma hemoglobin concentration. Controls 7 and 8
Emulsions were prepared by following the procedure of Example 5, except that di-2-ethylhexyl phthalate (Control 7) and glycerine monooctyl ether, an ether compound deviating from the scope of the present invention, (Control 8) were respectively used in place of glycerine-l-butyl-3-isostearyl ether. CRC samples incorporating the emulsions were left standing and, thereafter, tested for plasma hemoglobin concentration.
Isopropyl isolaurate was dispersed in a 2000 ug/ml poloxyethylene monooleate (reagent-grade product of Wako Junyaku K.K. marketed under trademark designation of "Tween 80")/physiological saline mixed solution so as to be contained therein in a concentration of 4 mM. A 0.2-ml aliquot of the resultant emulsion was added to CRC adjusted in advance to a hematocrit value of about 70% so as to be contained therein in a final concentration indicated in Table 5. The resultant liquid was placed in a stoppered polypropylene tube and left standing at 4°C for 4 weeks. Thereafter, it was tested for plasma hemoglobin concentration by following the procedure of Example 1.
An emulsion was prepared by following the procedure of Example 9, except that 2-ethylhexyl isostearate was used in place of isopropyl isolaurate. A CRC sample incorporating the resultant emulsion was left standing and, thereafter, tested for plasma hemoglobin concentration.

CRC = experiment: Hemolysis of stored CRC, reagent added directly to CRC; plasma hemoglobin by TMB method; assay type: cell-based, human; set-up: unit not given here; details: Table 2, direct addition, 4°C, 4 weeks
Method: (§1) Isopropyl isotridecyl maleate was added to CRC adjusted in advance to a hematocrit value of about 70% so as to be contained threrein in a final concentration indicated in Table 2 and stirred gently. The resultant liquid was placed in a stoppered polypropylene tube and left standing at rest at 4°C for 4 weeks, while subjecting to gentle stirring per a week. Thereafter, it was tested for plasma hemoglobin concentration by following the procedure of Example 1.
By following the procedrue of Example 3, isopropyl decyl maleate was added to CRC in the place of isopropyl isotridecyl maleate. The resultant liquid was left standing and, thereafter, tested for plasma hemoglobin concentration.
CRC samples were obtained by following the procedure of Example 3, except that di-2-ethylhexyl phthalate (Control 4) and diisopropyl maleate, a carboxylic ester compound deviating from the scope of this invention, (Control 5) were respectively used in place of isopropyl isotridecyl maleate. The resultant liquids were left standing and, thereafter, tested for plasma hemoglobin concentration.
as §1, with “Glycerine-l-butyl-isostearyl ether” for “Isopropyl isotridecyl maleate”, “therein” for “threrein”, “4” for “2”, “standing” for “standing at rest”
A CRC sample was prepared by following the procedure of Example 7, except that glycerine-1,3-dioctyl ether was used in place of glycerine-1-butyl 3-isostearyl ether. The resultant liquid was left standing and, thereafter, tested for plasma hemoglobin concentration.
Emulsions were prepared by following the procedure of Example 7, excepting di-2-ethylhexyl phthalate (Control 10) and glycerine monooctyl ether, an ether compound deviating from the scope of the present invention, (Control 11) were respectively used in the place of glycerine-l-butyl-3-isostearyl ether. CRC samples incorporating the emulsions were left standing and, thereafter, tested for plasma hemoglobin concetnration.
as §1, with “Isopropyl isolaurate” for “Isopropyl isotridecyl maleate”, “contained therein” for “contained threrein”, “Table 4” for “Table 2”, “was place” for “was placed”, “standing” for “standing at rest”, “stirring par” for “stirring per”
An emulsion was prepared by following the procedrue of Example 11, except that 2-ethylhexyl isostearate was used in place of isopropyl isolaurate. A CRC sample incorporating the resultant emulsion was left standing and, thereafter, tested for plasma hemoglobin concentration.
Emulsions were prepared by following the procedure of Example 11, except that di-2-ethylhexyl phthalate (Control 16) and ethyl-2-ethylhexanoate, a monocarboxylic ester compound deviating from the scope of the present invention, (Control 17) were respectively used in place of isopropyl isolaurate. CRC samples incorporating the resultant emulsions therein were left standing and, thereafter, tested for plasma hemoglobin concentraiton.

[2] = system: human platelet rich plasma; experiment: Platelet aggregation in platelet rich plasma (Aggrecoder); assay type: cell-based; details: 40 mM methanol solution added in 1/100, room temperature 2 hours, relative to blank; for Ratio of platelet aggregation: 400 µM; for activity at 400 µM: Homo sapiens, Platelet, 2 h, read-out: Ratio of platelet aggregation
Method: A 40 mM methanol solution of isopropyl isotridecyl maleate (Example 13), a 40 mM methanol solution of glycerine-l-butyl-3-isostearyl ether (Example 14), a 40 mM methanol solution of isopropyl isolaurate (Example 15), a 40 mM methanol solution of di-2-ethylhexyl phthalate (Control 19) and methanol containing no added compound (Control 20) were severally added to a human platelet rich plasma (count of platelets about 300,000/mm ) in a fixed amount of 1/100, left standing at room temperature for 2 hours, and tested for platelet aggregation by the use of an instrument (product of Kyoto Daiichikagaku K.K. marketed under "Aggrecoder").
The percentage of transmittance of light through the solution of platelet rich plasma containing a given sample to the maximum transmittance of light through the same solution of platelet rich plasma not containing the sample (blank) was reported as the ratio of aggregation of the sample. As aggregation inducers, 5 µM ADP (adenosine diphosphoric acid) and 5 ug/ml collagen were used.

[3] = system: concentrated human red cells; experiment: Hemolysis of CRC stored with blood preserving liquid (SAG solution/Tween 80 emulsion); assay type: cell-based; details: 4°C, 5 weeks
Method: An emulsion was produced by dissolving Tween 80 (reagent grade produced by Wako Junyaku K.K.) in a SAG solution (containing 140 mM of NaCl, 1.25 mM of adenine and 50 mM of glucose) so as to be contained therein in a concentration of 600 µg/ml adding 12 mM isopropyl isotridecyl maleate to the resultant solution, and stirring the resultant mixture for uniform dispersion. In a stoppered polypropylene tube, a mixture of 1.0 ml of the emulsion prepared as described above and 2.0 ml of a liquid of concentrated human red cells adjusted in advance to a hematocrit value of about 70% was left standing at 4°C for 5 weeks. The resultant liquid was tested for free hemoglobin concentration in plasma by following the procedure of Example 1.
An emulsion was prepared by dissolving Tween 80 (reagent grade product of Wako Junyaku K.K.) in a SAG liquid so as to be contained therein in a concentration of 600 µg/ml, adding 12 mM of glycerine-l-butyl-3-isostearyl ether and stirring the resultant mixture for 'uniform dispersion. In a stoppered polypropylene tube, a mixture of 1.0 ml of the emulsion prepared as described above and 2.0 ml of CRC adjusted in advance to a hematocrit value of about 70% was left stnading at 4°C for 5 weeks. At the end of this standing, the CRC liqud was tested for change of free hemoglobin concentration in plasma by following the procedure of Example 1.
An emulsion was prepared by dissolving Tween 80 (reagent grade product of Wako Junyaku K.K.) in a SAG liquid so as to be contained therein in a concentration of 600 ug/ml, adding 12 mM of isopropyl isolaurate to the resultant solution, and stirring the resultant mixture for uniform dispersion. In a stoppered polypropylene tube, a mixture of 1.0 ml of the emulsion prepared as described above and 2.0 ml of CRC adjusted in advance to a hematocrit value of about 70% and then left standing at 4°C for 5 weeks. At the end of the satnding, the liquid was tested for free hemoglobin concentraiton in plasma by following the procedure of Example 1. The results are shown in Talbe 24.

[4] = aggregation inducer 5 µg/ml collagen

Row | Molecule | Hemoglobin concentration in plasma ([1]; final concentration 0.4 mM) | Hemoglobin concentration in plasma ([1]; final concentration 4.0 mM) | hemolysis depressing capacity (in words) [1] | Hemoglobin concentration in plasma (CRC; final concentration 0.4 mM) | Hemoglobin concentration in plasma (CRC; final concentration 4.0 mM) | also measured
1 | CC(C)OC(=O)/C=C\C(=O)OC(C)C [Diisopropyl maleate, reference compound] | 124 Mg/ml | 138 Mg/ml | possessed virtually no ability to prevent hemolysis or conversely caused hemolysis | 135 | 160 | –
2 | CCCCC(CC)C(=O)OCC (stereo not shown) [Ethyl-2-ethylhexanoate, reference compound] | – | – | possessed virtually no ability to prevent hemolysis or conversely caused hemolysis | – | – | –
3 | CCCCCCCCOCC(O)CO (stereo not shown) [Glycerine monooctyl ether, reference compound] | – | – | possessed virtually no ability to prevent hemolysis or conversely caused hemolysis | – | – | –
4 | CCCCCCCCCCOC(=O)/C=C\C(=O)OC(C)C [Isopropyl decyl maleate] | 41 Mg/ml | 43 Mg/ml | – | 95 | 99 | –
5 | CC(C)CCCCCCCCC(=O)OC(C)C [Isopropyl isolaurate] | – | – | – | – | – | Ratio of platelet aggregation ([2]; aggregation inducer 5 µM ADP): 99.3%; Ratio of platelet aggregation [2, 4]: 101.6%; Concentration of Free Hemoglobin in Plasma ([3]; Table 24, final concentration of the additive in CRC 0.4 mM): 86 mg/dL; Concentration of Free Hemoglobin in Plasma ([3]; Table 24, final concentration of the additive in CRC 4.0 mM): 230 mg/dL
6 | CC(C)CCCCCCCCCCOC(=O)/C=C\C(=O)OC(C)C [Isopropyl isotridecyl maleate] | 35 Mg/ml | 33 Mg/ml | – | 90 | 95 | activity at 400 µM ([2]; aggregation inducer 5 µM ADP): 94.3%; activity at 400 µM [2, 4]: 94.5%
7 | Glycerine-1-butyl-3-isostearyl ether | – | – | – | – | – | Ratio of platelet aggregation ([2]; aggregation inducer 5 µM ADP): 101.0%; Ratio of platelet aggregation [2, 4]: 103.1%; Concentration of Free Hemoglobin in Plasma ([3]; Table 23, final concentration of the additive in CRC 0.4 mM): 71 mg/dL; Concentration of Free Hemoglobin in Plasma ([3]; Table 23, final concentration of the additive in CRC 4.0 mM): 102 mg/dL

— patent EP0334956A1, “HEMOLYSIS INHIBITOR AND MEDICAL RESIN COMPOSITION, MEDICAL IMPLEMENT, AND BLOOD-PRESERVING FLUID CONTAINING THE SAME” (KAO CORPORATION, priority 1986, dated 1988)
